These results are taken from patent US11786495B2 (priority 2021, dated 2023).

For data set [1] the following is noted: model of spinal stenosis; cited from earlier work.
A short description of data set [2]: TEC vs. Lipinski criteria for CNS drug like properties. The settings on record: four criteria: MW, LogP, HBD, HBA.
For data set [3] the following is noted: 70 kg man, estimated, extrapolated from animal models; cited from earlier work.
For data set [4], the system named is beta amyloid protein. The settings on record: varying concentrations of sodium citrate; thioflavin T positive aggregates; cited from earlier work.

Structures are written as SMILES. Structures can show the parent of a compound that is named as a salt.

On to `O=C(O)CC(O)(CC(=O)O)C(=O)O` [Citrate], for which the Bone calcium result in data set [1] was “decrease bone calcium”.

With `CCOC(=O)CC(O)(CC(=O)OCC)C(=O)OCC` [TEC, Triethyl citrate], the “Lipinski criteria met for a CNS drug” value in data set [2] is recorded as “Three out of four”. Also, in data set [3], the LD50 is given as about 500 cc.

On to `O=C([O-])CC(O)(CC(=O)[O-])C(=O)[O-].[Na+].[Na+].[Na+]` [sodium citrate], for which the “Dissolution of calcium-produced beta amyloid aggregates” value in data set [4] was “aggregates dissolve in response to citrate concentration”.
